In data set [1] the test system is human aortic endothelial cells (HAEC). The following applies: HAEC in vitro; eNOS phosphorylation via cAMP/PKA and PI3K/Akt, increased NO production (Non-Patent Document 6); cited from earlier work.
The test system of data set [2] is lower-extremity ischemic mouse. The following applies: long-term administration (Non-Patent Document 7); cited from earlier work.
The subject of data set [3] is excised rat femoral artery contracted with KCl. Kind of data set: Vasodilation of excised rat femoral artery in Magnus tube. The conditions noted are these: 0.1 μmol/L to 30 μmol/L, in vitro, n=3 (FIG. 9). As for the experimental part:
The femoral artery vessel (3 mm in width) excised from the rat was placed to a Magnus tube filled with a Krebs-Henseleit solution maintained at 37° C., to which a mixed gas of 95% O2 and 5% CO2 was continuously injected by reference to the method by Abiru et al. (Abiru T, et al., Eur J. Pharmacol. 1995; 281:9-15.). The isometric tension of the vessel was measured with a tension transducer, and the result was recorded with a thermal printer. The vessel was adjusted to a resting tension of 0.75 g. The vessel was contracted by 60 mmol/L (rats) of potassium chloride, and then the Compound 1 or a base was continuously injected to the Magnus tube. At the end of each experiment, […] of papaverine was added in order to determine the maximum relaxation.

Data set [4] is described as follows: Pharmacokinetics study in the rat, single oral dose. The class given is in vivo. The following applies: non-fasting, serum, n=3. Here is the method: The concentration of the Compound 1 in the serum was detected with a high-performance liquid chromatography system attached with a fluorescence detector. The maximum plasma concentration (Cmax) and time to the maximum plasma concentration (Tmax) were determined from the measurement of the drug concentration in the serum, half-life (T1/2), and AUC. The time curve was computed by a least squares method and a trapezoidal method, respectively.

In data set [5] the test system is normal human umbilical vein endothelial cells (HUVEC). Kind of data set: HUVEC tube formation on Matrigel matrix. The format is cell-based. As for the experimental part: (§1) The Compound 1 was produced according to the method described in WO97/012869 and dissolved in dimethyl sulfoxide (solvent). As for cells used in the experiment, human aortic endothelial cells (HAEC (Lonza Group Ltd.)) and normal human umbilical vein endothelial cells (HUVEC; American Type Culture Collection) were used.
HUVEC were cultured using an endothelial cell growth medium (Endothelial Cell Growth Medium: Cell Applications) containing 10% FBS. In a 96-well plate coated with Matrigel matrix, HUVEC were seeded at a concentration of 1.5×10^4 cells per well, and incubated in a 200 μL of culture medium containing various concentrations of the […] or solvent alone for 18 hours. After that, total tube length in a field (Total tube length) was calculated by image analysis using a light microscope (E-400; Nikon Corp.).

Data set [6] deals with rat femoral artery occlusion model. Kind of data set: Hindlimb muscle blood flow in rat hindlimb ischemia model by ligation of femoral artery (colored microspheres). The class given is in vivo. The conditions noted are these: 30 mg/kg oral twice daily for 27 days. Here is the method:
(§2) The Compound 1 was produced according to the method described in WO97/012869 and was used by dissolving in dimethyl sulfoxide or suspending in 1% (W/W) of hydroxypropyl methyl cellulose aqueous solution. As for animals, 7 to 9 week-old Sprague-Dawley (Slc:SD) male rats were used. As for anesthesia for operation, pentobarbital.sodium was intraperitoneally administered at a dose of 50 mg/kg.
(§3) Bilateral femoral arteries were exposed and the arteries were ligated using a suture under anesthesia. For histological analysis, the Compound 1 or base alone was orally administered twice daily for 27 days starting on the day of operation. On Day 28, the left gastrocnemius muscle was extirpated and frozen in a Tissue-Tek O.C.T. compound (Sakura Finetech Japan Co., Ltd.). Tissue sections at a thickness of 10 μm were prepared by slicing the frozen tissue sample with a freezing microtome, and dried in an air and fixed with acetone. […] The positive staining with α-SMA was identified by an examination using a light microscope, and the luminal area of intramuscular artery was quantified by image analysis (Win ROOF; Mitani Co., Ltd.). The blood flow volume on Day 28 in the hindlimb muscle in this model was determined by measuring at two points, in other words before and after exercise, using Dye-Trak VII+ microspheres (Triton Technology, Inc.).
In particular detail, initially a pentobarbital.sodium solution was intraperitoneally administered to the rat at a dose of 50 mg/kg to anesthetize. […] Wave profile of blood pressure that is characteristic to the left ventricular was detected to confirm whether the catheter has reached to the left ventricular. The temporal pulse pressure and average blood pressure were measured with a sphygmomanometer via the blood pressure transducer. […]

Data set [7] has the same test system. The data set can be described thus: Luminal area of intramuscular artery in gastrocnemius muscle, rat femoral artery ligation model (α-SMA staining). The class given is in vivo. The following applies: 30 mg/kg oral twice daily for 27 days, mean±standard error, n=16, ligated control 3315±416, sham 14642±1062, P<0.05. Here is the method: as §2, §3
Data set [8] relates to human aortic endothelial cells (HAEC). Kind of data set: Proliferative activity of HAEC (WST-8 assay). The following applies: 1 μM and 3 μM, 48 hours incubation, vs solvent control, n=3 (FIG. 1). The class given is cell-based. As for the experimental part:
as §1
HAEC were cultured using an endothelial cell growth medium (EGM-2 bullet kit; Lonza) containing 10% fetal bovine serum (FBS). The proliferative activity of HAEC was assessed by a WST-8 assay using a Cell Counting Kit (Dojindo Laboratories). In a 96-well plate, HAEC were seeded at a concentration of 5000 cells per well, and incubated for 24 hours. Subsequently, the medium in each well was exchanged to 100 μL of fresh culture medium containing various concentrations of the Compound 1 or solvent alone. After the 48 hours of subsequent incubation, 10 μL of WST-8 reagent was added to each well. The plate was incubated another 4 hours, and then the absorbance at 450 nm was measured with an absorbance plate reader.

Where [9] appears, read: Sprague-Dawley (Slc:SD), single oral 3 mg/kg.
The mark [10] stands for this setting: Sprague-Dawley (Slc:SD), single oral 10 mg/kg.
Where [11] appears, read: Sprague-Dawley (Slc:SD), single oral 100 mg/kg.
The mark [12] stands for this setting: Sprague-Dawley, single oral 10 mg/kg.
[13] abbreviates: Sprague-Dawley, single oral 30 mg/kg.

On to `O=C1CCc2cc(OCCCCc3nnnn3C3CCCCC3)ccc2N1` [cilostazol], for which the “tubulogenesis of endothelial cells” value in data set [1] is given as “promotes tubulogenesis of endothelial cells”. Besides, the “vascular density in lower-extremity muscles” value in data set [2] is “elevates”.

On to `O=C(NCCCOc1ccc2[nH]c(=O)ccc2c1)N(C1CC1)[C@@H]1CCCC[C@H]1O` [Compound 1, (−)-6-[3-[3-cyclopropyl-3-[(1R,2R)-2-hydroxycyclohexyl]ureido]propoxy]-2(1H)-quinolinone], for which the “vasodilating effect on ring specimen of excised rat femoral artery” value in data set [3] is given as “dose-dependent vasodilating effect”. Also, the AUC(0-inf) came out at 1.33 µM·h in data set [4] (setting [9]), 48.2 µM·h in data set [4] (setting [11]), 2.55 µM·h in data set [4] (setting [12]) and 14.8 µM·h in data set [4] (setting [13]). Also, the exposure AUC(0-t) in data set [4] (setting [9]) came out at 0.83 µM·h; in data set [4] (setting [10]), 2.38 µM·h; in data set [4] (setting [11]), 47.1 µM·h; in data set [4] (setting [13]), 14.1 µM·h. In addition, the Cmax in data set [4] (setting [9]) turned out to be 300 ± 60 nM; in data set [4] (setting [10]), 830 ± 140 nM; in data set [4] (Sprague-Dawley (Slc:SD), single oral 30 mg/kg) it was 4730 ± 280 nM; in data set [4] (Sprague-Dawley, single oral 100 mg/kg), 9760 ± 1440 nM. The Tmax in data set [4] (setting [9]) came to 1 h; in data set [4] (setting [11]), 1 h; in data set [4] (setting [12]) it was 1 h; in data set [4] (setting [13]) it was 2 h. For the same compound, the half-life in data set [4] (setting [9]) is 2.64 h; in data set [4] (setting [11]), 2.19 h; in data set [4] (setting [12]), 2 h; in data set [4] (setting [13]) it was 1.61 h. In addition, the “angiogenesis in photographs of HUVEC tube formation” value in data set [5] (0.01, 0.1, 1, 10, 100 μM (FIG. 2)) is given as “no angiogenesis could be confirmed”. Besides, the “HUVEC tube formation, ratio of Total tube length with respect to the control” value in data set [5] (0.01 to 100 μM, 18 hours, n=2 (FIG. 3)) is on record as “no significant difference with respect to the control”. Besides, the “angiogenic activity via direct action to endothelial cells” value in data set [5] (conclusion from HAEC proliferation and HUVEC tube formation) is reported as “does not have an angiogenic activity”. Moreover, in data set [6] (Day 28, after exercise, mean±standard error, n=20, control 0.561±0.034, P<0.001), the “blood flow in the gastrocnemius muscle after exercise” value is 0.818 ± 0.058 mL/min/g. Further, the “blood flow in anterior tibialis muscle after exercise” value in data set [6] (Day 28, after exercise, mean±standard error, n=20, control 0.697±0.039, P<0.001) is 0.992 ± 0.060 mL/min/g. Further, the “hindlimb muscle blood flow before exercise” value in data set [6] (Day 28, before exercise (at rest), gastrocnemius and anterior tibialis) is listed as “no change”. Moreover, the “luminal area of the main artery in the gastrocnemius muscle” value in data set [7] is 7100±824 μm^2. Also, the “effect on the proliferative activity of HAEC” value in data set [8] is listed as “no effect”.

The record behind these values is patent US20140330022A1, “COLLATERAL BLOOD CIRCULATION DEVELOPMENT PROMOTER” (KOWA COMPANY, LTD., priority 2012, published 2014).
